In patent US12371424B2, “Processes for the preparation of furazanobenzimidazoles and crystalline forms thereof” (Glioblastoma Foundation, Inc., priority 2017, dated 2025):

How the values were obtained:
[1] = Polymorphic stability (XRPD, climate chamber storage)
Method: XRPD patterns were obtained using a high-throughput XRPD set-up. The plates were mounted on a Bruker GADDS diffractometer equipped with a Hi-Star area detector. The XRPD platform was calibrated using Silver Behenate for the long d-spacings and Corundum for the short d-spacings. Data collection was carried out at room temperature using monochromatic CuKo radiation in the 20 region between 1.5° and 41.5°, which is the most distinctive part of the XRPD pattern. The diffraction pattern of each well was collected in two 20 ranges (1.5° 20≤21.5° for the first frame, and 19.5°% 20≤41.5° for the second) with an exposure time of 90 s for each frame. No background subtraction or curve smoothing was applied to the XRPD patterns. The carrier material used during XRPD analysis was transparent to X-rays and contributed only slightly to the background.
For variable humidity (VH) and variable temperature (VT) experiments a ANSYCO HT chamber was used, installed within a D8 Advance system diffractometer (Bruker) designed with Bragg-Brentano geometry and equipped with LynxEye solid state detector. The radiation used for collecting the data was CuKαl (2=1.54056 Å) monochromatized by germanium crystal. The material was placed on a fixed sample holder that was mounted inside the chamber.
VH-XRPD: The humidity was applied locally and varied from 10 to 70% (dew point). […]

[2] = Dynamic vapor sorption (DVS) moisture sorption isotherm; format: physicochemical; details: for water absorption up to 85% RH / water absorption up to 95% RH: DVS, ca. 25° C.
Method: Differences in hygroscopicity of the various forms of a solid material provided a measure of their relative stability at increasing relative humidity. Moisture sorption isotherms were obtained using a DVS-1 system from Surface Measurement Systems (London, UK). The relative humidity was varied during sorption-desorption (see specific experiment) at a constant temperature of ca. 25° C. At the end of the DVS experiment the sample was measured by XRPD.
The dynamic vapor sorption (DVS) analysis for the crystalline Form E of the dichloride salt of the compound of formula I is depicted in FIG. 11.
See Example 5f for experimental details. The DVS analysis for the crystalline System A+M of the dichloride salt of the compound of formula I is depicted in FIG. 35.

[3] = Thermodynamic pH-dependent solubility; details: room temperature, 24 h
Method: The thermodynamic pH-dependent solubility was performed in unbuffered water as well as using standard Merck Titriplex® buffers (Merck Titrisol® buffer pH 3 with citrate and HCl; Merck Titrisol® buffer pH 4 with citrate and HCl; Merck Titrisol® buffer pH 5 with citrate and NaOH; Merck Titrisol® buffer pH 6 with citrate and NaOH; Merck Titrisol® buffer pH 7 with phosphate; for buffering at pH 4.5 a 50/50 mixture of buffers for pH 4 and 5 was used; for buffering at pH 5.5 a 50/50 mixture of buffers for pH 5 and 6 was used).
For each experiment, an 8 mL screw cap vial was prepared with the polymorphic material, the buffer solvent according to the target pH and a magnetic stirring bar. Each pH data point was determined in triplicate with a target pH of 3, 4, 4.5, 5, 5.5 and 7. The pH was measured (Fisherbrand pH meter Hydrus 400, a three point calibration was performed prior to measurement) and adjusted with 1M NaOH solution. […] After 24 h the pH was monitored and the slurries were centrifuged for 10 min at 3000 rpm to separate the solids and liquids and filtered (0.45 micron disk filter). […] Concentrations of the compound of formula I were determined by High Performance Liquid Chromatography with Diode Array Detection analysis (HPLC-DAD). […]
HPLC testing was performed on Agilent 1100 with DAD detector at 280 nm wavelength. A LOQ of 11 μg/mL was determined, linearity is given up to ca. 0.7 mg/mL. […]

SMILES: N#CCCNc1nonc1-c1nc2ccccc2n1CC(=O)c1ccc(NC(=O)[C@@H](N)CCCCN)cc1 [Form E]
- polymorphic form after 2 days at 40° C./75% RH ([1]; wet solid treated 2 days at 40° C./75% RH): Form E
- water absorption up to 85% RH [2]: 1%
- water absorption up to 95% RH [2]: ca. 4%

SMILES: N#CCCNc1nonc1-c1nc2ccccc2n1CC(=O)c1ccc(NC(=O)[C@@H](N)CCCCN)cc1 [Mixture A1+M4]
- hysteresis in DVS ([2]; isothermic (24.9° C.) DVS, 0→95→0% RH): No hysteresis was observed
- maximum mass change ([2]; isothermic (24.9° C.) DVS, 0→95→0% RH in steps of 10% RH, at 95% RH): 34%

SMILES: N#CCCNc1nonc1-c1nc2ccccc2n1CC(=O)c1ccc(NC(=O)[C@@H](N)CCCCN)cc1 [System A+M]
- polymorphic stability (in words) ([1]; listed as System A+X): polymorphically stable
- water absorption up to 85% RH [2]: ca. 22%
- water absorption up to 95% RH [2]: < 34%
- solubility (in words) [3]: good solubility
